Each structure is given as a SMILES string.

This note sets out measurements from publication PMC5291411, “Cytotoxic conjugates of betulinic acid and substituted triazoles prepared by Huisgen Cycloaddition from 30-azidoderivatives” (PLoS ONE, 2017).

The test system of one assay is HCT116. In words: Cytotoxic MTS assay, HCT116. The class given is cell-based. Conditions: Homo sapiens, HCT-116, 72 h, colorectal tumor. The text has this: (§1) Cytotoxic activity of all synthesized compounds was investigated in vitro against eight human cancer cell lines and two non-tumor fibroblasts using the standard MTS test (Table 1). The cancer cell lines were derived from T-lymphoblastic leukemia CCRF-CEM, leukemia K562 and their multiresistant counterparts expressing P-glycoprotein, MRP1 and LRP proteins (CEM-DNR, K562-TAX), solid tumors including lung (A549) and colon (HCT116, HCT116p53-/-) carcinomas, osteosarcoma cell line (U2OS), and for comparison, tests were performed on two human non-cancer fibroblast cell lines (BJ, MRC-5).
(§2) Biological assays were performed in concordance with our previous publications [[29], [58]; [60]; [61]]. All cells (if not indicated otherwise) were purchased from the American Tissue Culture Collection (ATCC). The CCRF-CEM line is derived from T lymphoblastic leukemia, evincing high chemosenzitivity, K562 represent cells from an acute myeloid leukemia patient sample with bcr-abl translocation, U2OS line is derived from osteosarcoma, HCT116 is colorectal tumor cell line and its p53 gene knock-down counterpart (HCT116p53-/-, Horizon Discovery Ltd, UK) is a model of human cancers with p53 mutation frequently associated with poor prognosis, A549 line is lung adenocarcinoma. The daunorubicin resistant subline of CCRF-CEM cells (CEM-DNR bulk) and paclitaxel resistant subline K562-TAX were selected in our laboratory by the cultivation of maternal cell lines in increasing concentrations of daunorubicine or paclitaxel, respectively. The CEM-DNR bulk cells overexpress MRP-1 and P-glycoprotein protein, while K562-TAX cells overexpress P-glycoprotein only. Both proteins belong to the family of ABC transporters and are involved in the primary and/or acquired multidrug resistance phenomenon. MRC-5 and BJ cell lines were used as a non-tumor control and represent human fibroblasts. The cells were maintained in nunc/corning 80 cm^2 plastic tissue culture flasks and cultured in cell culture medium according to ATCC or Horizon recommendations (DMEM/RPMI 1640 with 5 g/L glucose, 2 mM glutamine, 100 U/mL penicillin, […] streptomycin, 10% fetal calf serum, and NaHCO3).
(§3) MTS assay was performed at Institute of Molecular and Translational Medicine by robotic platform (HighResBiosolutions). Cell suspensions were prepared and diluted according to the particular cell type and the expected target cell density (25000–35000 cells/mL based on cell growth characteristics). Cells were added by automatic pipetor (30 μL) into 384 well microtiter plates. All tested compounds were dissolved in 100% DMSO and four-fold dilutions of the intended test concentration were added in 0.15 μL aliquots at time zero to the microtiter plate wells by the echoacustic non-contact liquid handler Echo550 (Labcyte). The experiments were performed in technical duplicates and three biological replicates at least. The cells were incubated with the tested compounds for 72 h at 37°C, in a 5% CO2 atmosphere at 100% humidity. At the end of the incubation period, the cells were assayed by using the MTS test. Aliquots (5 μL) of the MTS stock solution were pipetted into each well and incubated for additional 1–4 h. After this incubation period, the optical density (OD) was measured at 490 nm with an Envision reader (Perkin Elmer). Tumor cell survival (TCS) was calculated by using the following equation: TCS = (ODdrug-exposed well/mean ODcontrol wells) × 100%. The IC50 value, the drug concentration that is lethal to 50% of the tumor cells, was calculated from the appropriate dose-response curves in Dotmatics software.
In general terms: Tetrazolium dyes change colour on reduction, which living cells bring about.
A word on the IC50: it is the point on the concentration scale where inhibition reaches its midpoint. Read a low IC50 as higher potency. `C=C(Cn1cc(-c2ccc(C(C)(C)C)cc2)nn1)[C@@H]1CC[C@]2(C(=O)O)CC[C@]3(C)C(CCC4[C@@]5(C)CC[C@H](OC(C)=O)C(C)(C)C5CC[C@]43C)C12` (stereo partly drawn) [Compound 9f] came in with an IC50 of 41.9 µM.

For `C=C(Cn1cc(-c2ccccc2)nn1)[C@@H]1CC[C@]2(C(=O)O)CC[C@]3(C)C(CCC4[C@@]5(C)CC[C@H](O)C(C)(C)C5CC[C@]43C)C12` (stereo partly drawn) [Compound 11a], the IC50 is greater than 50 µM.

In the case of `C=C(Cn1cc(-c2ccccn2)nn1)[C@@H]1CC[C@]2(C(=O)O)CC[C@]3(C)C(CCC4[C@@]5(C)CC[C@H](O)C(C)(C)C5CC[C@]43C)C12` (stereo partly drawn) [Compound 11c], the IC50 is greater than 50 µM.

For a further assay, the system named is MRC-5. The assay is described as follows: Cytotoxic MTS assay, MRC-5 fibroblasts. The class given is cell-based. The following applies: Homo sapiens, MRC5, 72 h, non-tumor fibroblasts.
Description: as §1, §2, §3
Consider `C=C(Cn1cc(-c2ccc(C(C)(C)C)cc2)nn1)[C@@H]1CC[C@]2(C(=O)O)CC[C@]3(C)C(CCC4[C@@]5(C)CC[C@H](OC(C)=O)C(C)(C)C5CC[C@]43C)C12` (stereo partly drawn) [Compound 9f], for which the IC50 is greater than 50 µM.

The compound `C=C(Cn1cc(-c2ccccc2)nn1)[C@@H]1CC[C@]2(C(=O)O)CC[C@]3(C)C(CCC4[C@@]5(C)CC[C@H](O)C(C)(C)C5CC[C@]43C)C12` (stereo partly drawn) [Compound 11a] registered an IC50 greater than 50 µM.

The compound `C=C(Cn1cc(-c2ccccn2)nn1)[C@@H]1CC[C@]2(C(=O)O)CC[C@]3(C)C(CCC4[C@@]5(C)CC[C@H](O)C(C)(C)C5CC[C@]43C)C12` (stereo partly drawn) [Compound 11c] showed an IC50 greater than 50 µM.

In a further assay the test system is HCT116p53-/-. In words: Cytotoxic MTS assay, HCT116p53-/-. The class given is cell-based. The following applies: Homo sapiens, 72 h, p53 knock-down colorectal tumor.
Description: as §1, §2, §3
Turning to `C=C(Cn1cc(-c2ccc(C(C)(C)C)cc2)nn1)[C@@H]1CC[C@]2(C(=O)O)CC[C@]3(C)C(CCC4[C@@]5(C)CC[C@H](OC(C)=O)C(C)(C)C5CC[C@]43C)C12` (stereo partly drawn) [Compound 9f], the IC50 worked out at 48.4 µM.

In turn, `C=C(Cn1cc(-c2ccccc2)nn1)[C@@H]1CC[C@]2(C(=O)O)CC[C@]3(C)C(CCC4[C@@]5(C)CC[C@H](O)C(C)(C)C5CC[C@]43C)C12` (stereo partly drawn) [Compound 11a] had an IC50 greater than 50 µM.

In turn, `C=C(Cn1cc(-c2ccccn2)nn1)[C@@H]1CC[C@]2(C(=O)O)CC[C@]3(C)C(CCC4[C@@]5(C)CC[C@H](O)C(C)(C)C5CC[C@]43C)C12` (stereo partly drawn) [Compound 11c] yielded an IC50 greater than 50 µM.

The test system of another assay is U2OS. The assay is described as follows: Cytotoxic MTS assay, U2OS. Format: cell-based. The following applies: Homo sapiens, 72 h, osteosarcoma.
Description: as §1, §2, §3
For `C=C(Cn1cc(-c2ccc(C(C)(C)C)cc2)nn1)[C@@H]1CC[C@]2(C(=O)O)CC[C@]3(C)C(CCC4[C@@]5(C)CC[C@H](OC(C)=O)C(C)(C)C5CC[C@]43C)C12` (stereo partly drawn) [Compound 9f], the concentration for half-maximal inhibition (IC50) was 45.8 µM. That is a double-digit micromolar value.

Turning to `C=C(Cn1cc(-c2ccccc2)nn1)[C@@H]1CC[C@]2(C(=O)O)CC[C@]3(C)C(CCC4[C@@]5(C)CC[C@H](O)C(C)(C)C5CC[C@]43C)C12` (stereo partly drawn) [Compound 11a], the IC50 is greater than 50 µM.

Compound `C=C(Cn1cc(-c2ccccn2)nn1)[C@@H]1CC[C@]2(C(=O)O)CC[C@]3(C)C(CCC4[C@@]5(C)CC[C@H](O)C(C)(C)C5CC[C@]43C)C12` (stereo partly drawn) [Compound 11c] came in with an IC50 greater than 50 µM.

In another assay the test system is K562. The assay is described as follows: Cytotoxic MTS assay, K562. Format: cell-based. The following applies: Homo sapiens, 72 h, leukemia.
Description: as §1, §2, §3
Compound `C=C(Cn1cc(-c2ccc(C(C)(C)C)cc2)nn1)[C@@H]1CC[C@]2(C(=O)O)CC[C@]3(C)C(CCC4[C@@]5(C)CC[C@H](OC(C)=O)C(C)(C)C5CC[C@]43C)C12` (stereo partly drawn) [Compound 9f] came in with an IC50 of 15.6 µM.

The compound `C=C(Cn1cc(-c2ccccc2)nn1)[C@@H]1CC[C@]2(C(=O)O)CC[C@]3(C)C(CCC4[C@@]5(C)CC[C@H](O)C(C)(C)C5CC[C@]43C)C12` (stereo partly drawn) [Compound 11a] gave an IC50 greater than 50 µM.

In the case of `C=C(Cn1cc(-c2ccccn2)nn1)[C@@H]1CC[C@]2(C(=O)O)CC[C@]3(C)C(CCC4[C@@]5(C)CC[C@H](O)C(C)(C)C5CC[C@]43C)C12` (stereo partly drawn) [Compound 11c], the IC50 was greater than 50 µM.

The subject of a further assay is CCRF-CEM. The assay is described as follows: Cytotoxic MTS assay, CCRF-CEM. The class given is cell-based. The following applies: Homo sapiens, 72 h, T-lymphoblastic leukemia.
Description: as §1, §2, §3
Regarding `C=C(Cn1cc(-c2ccc(C(C)(C)C)cc2)nn1)[C@@H]1CC[C@]2(C(=O)O)CC[C@]3(C)C(CCC4[C@@]5(C)CC[C@H](OC(C)=O)C(C)(C)C5CC[C@]43C)C12` (stereo partly drawn) [Compound 9f], the IC50 was found to be 34.5 µM. This lies in the double-digit micromolar range.

As to `C=C(Cn1cc(-c2ccccc2)nn1)[C@@H]1CC[C@]2(C(=O)O)CC[C@]3(C)C(CCC4[C@@]5(C)CC[C@H](O)C(C)(C)C5CC[C@]43C)C12` (stereo partly drawn) [Compound 11a], the IC50 stood at 16.6 µM.

In turn, `C=C(Cn1cc(-c2ccccn2)nn1)[C@@H]1CC[C@]2(C(=O)O)CC[C@]3(C)C(CCC4[C@@]5(C)CC[C@H](O)C(C)(C)C5CC[C@]43C)C12` (stereo partly drawn) [Compound 11c] displayed an IC50 of 14.4 µM. This IC50 and that of the compound before are within 1.5-fold of each other.

A further assay relates to K562-TAX. The assay is described as follows: Cytotoxic MTS assay, K562-TAX. Format: cell-based. The following applies: Homo sapiens, 72 h, paclitaxel resistant subline of K562.
Description: as §1, §2, §3
As for `C=C(Cn1cc(-c2ccc(C(C)(C)C)cc2)nn1)[C@@H]1CC[C@]2(C(=O)O)CC[C@]3(C)C(CCC4[C@@]5(C)CC[C@H](OC(C)=O)C(C)(C)C5CC[C@]43C)C12` (stereo partly drawn) [Compound 9f], the concentration for half-maximal inhibition (IC50) was 23.4 µM.

Compound `C=C(Cn1cc(-c2ccccc2)nn1)[C@@H]1CC[C@]2(C(=O)O)CC[C@]3(C)C(CCC4[C@@]5(C)CC[C@H](O)C(C)(C)C5CC[C@]43C)C12` (stereo partly drawn) [Compound 11a] had an IC50 of 23.3 µM.

`C=C(Cn1cc(-c2ccccn2)nn1)[C@@H]1CC[C@]2(C(=O)O)CC[C@]3(C)C(CCC4[C@@]5(C)CC[C@H](O)C(C)(C)C5CC[C@]43C)C12` (stereo partly drawn) [Compound 11c]: the IC50 stood at 7.2 µM.

The next assay deals with BJ. The assay is described as follows: Cytotoxic MTS assay, BJ fibroblasts. Format: cell-based. Conditions: Homo sapiens, 72 h, non-tumor fibroblasts.
Description: as §1, §2, §3
Regarding `C=C(Cn1cc(-c2ccc(C(C)(C)C)cc2)nn1)[C@@H]1CC[C@]2(C(=O)O)CC[C@]3(C)C(CCC4[C@@]5(C)CC[C@H](OC(C)=O)C(C)(C)C5CC[C@]43C)C12` (stereo partly drawn) [Compound 9f], the IC50 was greater than 50 µM.

`C=C(Cn1cc(-c2ccccc2)nn1)[C@@H]1CC[C@]2(C(=O)O)CC[C@]3(C)C(CCC4[C@@]5(C)CC[C@H](O)C(C)(C)C5CC[C@]43C)C12` (stereo partly drawn) [Compound 11a]: the IC50 is greater than 50 µM.

For `C=C(Cn1cc(-c2ccccn2)nn1)[C@@H]1CC[C@]2(C(=O)O)CC[C@]3(C)C(CCC4[C@@]5(C)CC[C@H](O)C(C)(C)C5CC[C@]43C)C12` (stereo partly drawn) [Compound 11c], the IC50 is greater than 50 µM.

For a further assay, the system named is CEM-DNR. The assay is described as follows: Cytotoxic MTS assay, CEM-DNR. The following applies: Homo sapiens, 72 h, daunorubicin resistant subline of CCRF-CEM. Format: cell-based.
Description: as §1, §2, §3
`C=C(Cn1cc(-c2ccc(C(C)(C)C)cc2)nn1)[C@@H]1CC[C@]2(C(=O)O)CC[C@]3(C)C(CCC4[C@@]5(C)CC[C@H](OC(C)=O)C(C)(C)C5CC[C@]43C)C12` (stereo partly drawn) [Compound 9f] came in with an IC50 of 15 µM.

The compound `C=C(Cn1cc(-c2ccccc2)nn1)[C@@H]1CC[C@]2(C(=O)O)CC[C@]3(C)C(CCC4[C@@]5(C)CC[C@H](O)C(C)(C)C5CC[C@]43C)C12` (stereo partly drawn) [Compound 11a] registered an IC50 of 23.8 µM.

Compound `C=C(Cn1cc(-c2ccccn2)nn1)[C@@H]1CC[C@]2(C(=O)O)CC[C@]3(C)C(CCC4[C@@]5(C)CC[C@H](O)C(C)(C)C5CC[C@]43C)C12` (stereo partly drawn) [Compound 11c] returned an IC50 of 8.5 µM.

Another assay has as its system A549. The assay is described as follows: Cytotoxic MTS assay, A549. Format: cell-based. Conditions: Homo sapiens, 72 h, lung adenocarcinoma.
Description: as §1, §2, §3
`C=C(Cn1cc(-c2ccc(C(C)(C)C)cc2)nn1)[C@@H]1CC[C@]2(C(=O)O)CC[C@]3(C)C(CCC4[C@@]5(C)CC[C@H](OC(C)=O)C(C)(C)C5CC[C@]43C)C12` (stereo partly drawn) [Compound 9f] registered an IC50 of 45 µM.

On to `C=C(Cn1cc(-c2ccccc2)nn1)[C@@H]1CC[C@]2(C(=O)O)CC[C@]3(C)C(CCC4[C@@]5(C)CC[C@H](O)C(C)(C)C5CC[C@]43C)C12` (stereo partly drawn) [Compound 11a], for which the IC50 is greater than 50 µM.

In turn, `C=C(Cn1cc(-c2ccccn2)nn1)[C@@H]1CC[C@]2(C(=O)O)CC[C@]3(C)C(CCC4[C@@]5(C)CC[C@H](O)C(C)(C)C5CC[C@]43C)C12` (stereo partly drawn) [Compound 11c] came in with an IC50 greater than 50 µM.
